# Calls of active or inactive are those of the source. The rule behind the calls is not given here.
# Tests used:
# [1] = system: Jurkat; experiment: Cytotoxicity against human Jurkat cells assessed as reduction in cell viability; assay type: functional, cell-based
# [2] = system: Saccharomyces cerevisiae; experiment: Growth inhibition of Saccharomyces cerevisiae W303 at 10 uM after 2 to 3 days in ammonium iron(II) sulfate condition; assay type: functional, organism-based; conditions: time day 2-3
# [3] = system: Saccharomyces cerevisiae; experiment: Antifungal activity against Saccharomyces cerevisiae W303 assessed as reduction in microbial growth at 10 uM after 2 to 3 days; assay type: functional, organism-based; conditions: time day 2-3
# [4] = system: Saccharomyces cerevisiae W303; experiment: Inhibition of V-ATpase in Saccharomyces cerevisiae W303 assessed as quinacrine accumulation in the cytosol at 10 uM after 4 hrs by fluorescence microscopic method; assay type: subcellular
# [5] = system: Saccharomyces cerevisiae; experiment: Growth inhibition of Saccharomyces cerevisiae W303 at 10 uM after 2 to 3 days in glycerol condition relative to control; assay type: functional; conditions: time day 2-3, read-out: GI
# [6] = system: Saccharomyces cerevisiae; experiment: Growth inhibition of Saccharomyces cerevisiae W303 pdr5 deletion mutant at 10 uM after 2 to 3 days in ammonium iron(II) sulfate condition; assay type: functional, organism-based; conditions: time day 2-3
# [7] = system: Saccharomyces cerevisiae; experiment: Growth inhibition of Saccharomyces cerevisiae W303 pdr5 deletion mutant at 0.5 to 10 uM after 2 to 3 days at pH 5 condition; assay type: functional, organism-based; conditions: dose microM 0.5-10, time day 2-3
# [8] = system: Jurkat; experiment: Cytotoxicity against human Jurkat cells assessed as reduction in cell viability in presence of pan-caspase inhibitor Z-VAD-FMK relative to control; assay type: functional
# [9] = system: Saccharomyces cerevisiae; experiment: Growth inhibition of Saccharomyces cerevisiae W303 pdr5 deletion mutant at 0.5 to 10 uM after 2 to 3 days at pH 7.5 condition; assay type: functional, organism-based; conditions: dose microM 0.5-10, time day 2-3
# [10] = system: Saccharomyces cerevisiae W303; experiment: Inhibition of V-ATpase in Saccharomyces cerevisiae […] vacuolar membranes at 80 nM after 10 mins by spectrophotometric based coupled enzyme assay; assay type: cell membranes; conditions: Membrane
# [11] = system: Saccharomyces cerevisiae W303; experiment: Inhibition of V-ATpase in Saccharomyces cerevisiae W303 pdr5 deletion mutant assessed as quinacrine accumulation in the cytosol at 10 uM after 4 hrs by fluorescence microscopic method; assay type: subcellular
# [12] = system: Saccharomyces cerevisiae; experiment: Growth inhibition of Saccharomyces cerevisiae W303 pdr5 deletion mutant at 10 uM after 2 to 3 days in glycerol condition relative to control; assay type: functional; conditions: time day 2-3, read-out: GI
# [13] = Inhibition of V-ATpase in Saccharomyces cerevisiae […] vacuolar membranes after 10 mins by spectrophotometric based coupled enzyme assay; assay type: cell membranes, Saccharomyces cerevisiae W303, Membrane
# [14] = system: Saccharomyces cerevisiae; experiment: Antifungal activity against Saccharomyces cerevisiae W303 pdr5 deletion mutant assessed as reduction in microbial growth at 0.5 uM after 2 to 3 days; assay type: functional, organism-based; conditions: time day 2-3
# [15] = system: Saccharomyces cerevisiae; experiment: Growth inhibition of Saccharomyces cerevisiae W303 at 0.5 to 10 uM after 2 to 3 days at pH 5 condition; assay type: functional, organism-based; conditions: dose microM 0.5-10, time day 2-3
# [16] = system: Saccharomyces cerevisiae; experiment: Growth inhibition of Saccharomyces cerevisiae W303 at 0.5 to 10 uM after 2 to 3 days at pH 7.5 condition; assay type: functional, organism-based; conditions: dose microM 0.5-10, time day 2-3
# [17] = system: Saccharomyces cerevisiae W303; experiment: Inhibition of V-ATpase in Saccharomyces cerevisiae W303 assessed as quinacrine accumulation in the cytosol at 0.5 uM after 4 hrs by fluorescence microscopic method; assay type: subcellular
# [18] = system: Saccharomyces cerevisiae; experiment: Growth inhibition of Saccharomyces cerevisiae W303 pdr5 deletion mutant at 0.5 uM after 2 to 3 days in glycerol condition relative to control; assay type: functional; conditions: time day 2-3, read-out: GI
# [19] = system: Saccharomyces cerevisiae W303; experiment: Inhibition of V-ATpase in Saccharomyces cerevisiae W303 pdr5 deletion mutant assessed as quinacrine accumulation in the cytosol at 0.5 uM after 4 hrs by fluorescence microscopic method; assay type: subcellular
# [20] = system: Saccharomyces cerevisiae; experiment: Growth inhibition of Saccharomyces cerevisiae W303 at 0.5 uM after 2 to 3 days in glycerol condition relative to control; assay type: functional; conditions: time day 2-3, read-out: GI
# [21] = system: Saccharomyces cerevisiae; experiment: Growth inhibition of Saccharomyces cerevisiae W303 at 0.5 uM after 2 to 3 days in ammonium iron(II) sulfate condition; assay type: functional, organism-based; conditions: time day 2-3
# [22] = system: Saccharomyces cerevisiae; experiment: Inhibition of V-ATpase in Saccharomyces cerevisiae BY4742 vacuolar membranes at 100 nM after 10 mins by spectrophotometric based coupled enzyme assay relative to control; assay type: cell membranes; conditions: Membrane
# [23] = system: Saccharomyces cerevisiae; experiment: Growth inhibition of Saccharomyces cerevisiae W303 pdr5 deletion mutant at 0.5 uM after 2 to 3 days in ammonium iron(II) sulfate condition; assay type: functional, organism-based; conditions: time day 2-3
structure (smiles),measurement,setting,value
C[C@@H]1C/C=C/C(=O)O[C@H](/C=C/C#C/C=C/C(C)(C)[C@@H](O)c2cccc(O)c2Br)[C@@H](C)/C=C/[C@H](C)C[C@H](OC(N)=O)C1,IC50,[1],115 nM
C[C@@H]1C/C=C\C(=O)O[C@H](/C=C/C#C/C=C/C(C)(C)[C@@H](O)c2cccc(O)c2Br)[C@@H](C)/C=C/[C@H](C)C[C@H](OC(N)=O)C1,growth inhibition (GI),[2],inactive
same,Activity,[3],Active
same,inhibition,[4],Active
same,IC50,[1],43 nM
same,inhibition of growth at 10 µM,[5],100%
same,growth inhibition (GI),[6],inactive
same,growth inhibition (GI),[7],Active
same,Activity,[8],<3%
same,growth inhibition (GI),[9],Active
same,inhibition,[10],Active
same,inhibition,[11],Active
same,inhibition of growth at 10 µM,[12],100%
same,IC50,[13],9.91 nM
same,Activity,[14],Active
same,growth inhibition (GI),[15],Active
same,growth inhibition (GI),[16],Active
CO/C1=C\C(C)=C\[C@@H](C)[C@@H](O)[C@@H](C)C/C(C)=C/C=C/[C@H](OC)[C@@H]([C@@H](C)[C@@H](O)[C@H](C)[C@@]2(O)C[C@@H](O)[C@H](C)[C@@H](C(C)C)O2)OC1=O [BAFILOMYCIN A1],IC50,[13],4 nM
C/C=C/[C@H]1O[C@@](O)([C@@H](C)[C@H](O)[C@H](C)[C@H]2OC(=O)/C(OC)=C/C(C)=C/[C@@H](C)[C@@H](O)[C@@H](CC)[C@@H](O)[C@H](C)C/C(C)=C/C=C/[C@@H]2OC)C[C@@H](O[C@H]2C[C@@H](O)[C@H](OC(N)=O)[C@@H](C)O2)[C@@H]1C [CONCANAMYCIN A],inhibition,[17],Active
same,inhibition of growth at 0.5 µM,[18],100%
same,inhibition,[19],Active
same,inhibition of growth at 0.5 µM,[20],100%
same,growth inhibition (GI),[21],inactive
same,inhibition,[22],75%
same,IC50,[13],3 nM
same,growth inhibition (GI),[23],inactive
same,Activity,[14],Active

# Reference: ChEMBL document CHEMBL4699625, “Callyspongiolide Is a Potent Inhibitor of the Vacuolar ATPase” (J Nat Prod, 2020)
